Measured values reported in US4952564A, “Antiallergic agent” (Dainippon Ink and Chemicals, Inc., priority 1986, dated 1990).

Legend:
ileum of the guinea pig = test: Schultz-Dale reaction (antigen-induced contraction of ileum of actively sensitized guinea pig); format: cell-based, guinea pig (Hartley)
Protocol: The Schultz-Dale test and the inhibition effect of the compound of the present invention on the liberation of histamines by a compound 48/80 indicate that isoliquiritigenin has an antiallergic activity.
(1) Active sensitization of guinea pig by antigenic egg-white albumin (EWA)
After 1, 2 and 3 weeks, additional sensitization was conducted by injecting an equivalent mixed emulsion of a physiological saline solution of 4 mg/ml of EWA and complete Freund's adjuvant into the muscle at a ratio of 0.1 ml/100 g and the guinea pig was subjected to the Schultz-Dale reaction one week after the final sensitization.
(2) Schultz-Dale reaction
The ileum of the guinea pig which was actively sensitized in (1) above was extirpated and immediately soaked in Tyrode's solution to form a specimen of a length of 15 mm which was suspended at a tensile force of l.5 g in a Magnus' tube (10 ml) kept at a temperature of 37° C. Contraction of the ileum by 10^-6 mole of histamine. […] Then, after preincubation for about 2 minutes, 10 μg/ml of EWA was added to the Magnus' tube and the contraction of the ileum was recorded. As a control, the contraction of the ileum was measured by an operation which was similar to that of the above, except that the physiological saline solution of isoliquiritigenin containing 0.2% sodium bicarbonate was not applied. […]

[1] = tested on: rat peritoneal exudation cells; test: Inhibition effect on the liberation of histamine by compound 48/80; format: cell-based; settings: for Liberation ratio of histamine (%): control 87.4, blank 9.3
Protocol: 2. Inhibition effect of the medicine on the liberation of histamine by compound 48/80.
(1) Preparation of rat peritoneal exudation cells
10 ml of Locke's solution containing 0.1% of bovine serum albumin was injected into the abdominal cavity of a rat which had been killed by exsanguination. The rat was lightly massaged, then subjected to an abdominal section so that an abdominal solution was collected. The abdominal cavity was also washed with 5 ml of the same solution and the washing solution was collected and mixed with the above abdominal solution. The abdominal solution was centrifuged at 500 rpm for 5 minutes, then 5 ml of cool Locke's solution was added to the sediment. After the sediment had been washed, 3 ml of cool Locke's solution was again added thereto to form a solution of rat peritoneal exudation cells.
(2) Inhibition effect of medicine on the liberation of histamine by compound 48/80.
0.5 ml of Locke's solution and 1.0 ml of each of the solutions of isoliquiritigenin prepared to the concentration shown in Table 2 (the isoliquiritigenin was dissolved in a physiological saline solution containing 1% sodium bicarbonate, the resultant solution being diluted with Locke's solution) were added to 0.3 ml of the solution of rat peritoneal exudation cells obtained in (1) above and were incubated at 37° C. for 5 minutes. Then, 0.2 ml each of a Locke's solution of the compound 48/80 (1 mg/100 ml) was added to the solution and the mixture was incubated at 37° C. for 10 minutes. After the reaction was stopped by cooling, the obtained solution was centrifuged at 2,500 rpm for 10 minutes to be separated into 1.7 ml of supernatant and 0.3 ml of sediment. 0.1 ml of water and 0.2 ml of 100% trichloroacetic acid were added to the supernatant, and 1.5 ml of Locke's solution and the 100% trichloroacetic acid were added to the sediment which was then allowed to stand for 30 minutes at room temperature and was centrifuged at 3,000 rpm for 15 minutes. 0.35 ml of each of the supernatant and the supernatant of the sediment was taken and 1.65 ml of water and 0.4 ml of 1N sodium hydroxide were added in turn to each of the supernatants. 0.1 ml of 0.5% OPT (orthophthalaldehyde) methanol solution was added to each of the resultant solutions which were then allowed to react at room temperature for 4 minutes. After the reaction was stopped by the addition of 0.2 ml of 2M citric acid, the fluorescence of each of the reaction solutions was measured by a fluorophotometer. […]
The inhibition ratio of isoliquiritigenin for the liberation of histamine by the compound 48/80 is calculated from the following equations: [formula]

[2] = Side effects when administered for a long time; format: in vivo; settings: no test described
ddY male mice = test: Acute toxicity (minimum lethal dose) in mice; format: in vivo; settings: for minimum lethal dose: five 5-week-old ddY male mice
Protocol: Isoliquiritigenin was orally or intra-peritoneally administered to five 5-week-old ddY male mice. Consequently, it was determined that the minimum lethal dose was not less than 3000 mg/kg (oral administration) or not less than 1000 mg/kg (intra-peritoneal administration).

[3] = used in treatment of gastric ulcers; cited from earlier work

Structure (SMILES): O=C(/C=C/c1ccc(O)cc1)c1ccc(O)cc1O [Isoliquiritigenin, isoliquiritigenin]
- inhibition at 100 µM (ileum of the guinea pig; Cavia porcellus, 10^-4 mole, EWA 10 μg/ml, versus control, read-out: Inhibition ratio (%)): 90.2%
- contraction of the ileum of the guinea pig by histamine and SRS-A (ileum of the guinea pig; result in words): inhibits the contraction of the ileum of the guinea pig by histamine and SRS-A
- Liberation ratio of histamine (%) ([1]; isoliquiritigenin 100 mg/ml): 71.0%
- Liberation ratio of histamine (%) ([1]; isoliquiritigenin 300 mg/ml): 32.7%
- Liberation ratio of histamine (%) ([1]; isoliquiritigenin 1000 mg/ml): 9.2%
- liberation of histamine from mast cells by compound 48/80 ([1]; result in words): inhibits histamines from liberating mast cells by the compound 48/80
- side effects [2]: few side effects
- minimum lethal dose (ddY male mice; intra-peritoneal administration): not less than 1000 mg/kg
- minimum lethal dose (ddY male mice; oral administration): not less than 3000 mg/kg
- toxicity (ddY male mice; result in words): very low toxicity
- antiulcerous activity [3]: exhibits an antiulcerous activity
